Assay results from publication PMC4681097 (Chemistry & biology, 2011).

Molecular target: PHD2_181-426 (Homo sapiens, UniProt Q9GZT9)
Test: Photo cross-linking of purified PHD2 analysed by MALDI-MS
Assay type: binding

PHD2_181-426, sequence (Q9GZT9 181-426): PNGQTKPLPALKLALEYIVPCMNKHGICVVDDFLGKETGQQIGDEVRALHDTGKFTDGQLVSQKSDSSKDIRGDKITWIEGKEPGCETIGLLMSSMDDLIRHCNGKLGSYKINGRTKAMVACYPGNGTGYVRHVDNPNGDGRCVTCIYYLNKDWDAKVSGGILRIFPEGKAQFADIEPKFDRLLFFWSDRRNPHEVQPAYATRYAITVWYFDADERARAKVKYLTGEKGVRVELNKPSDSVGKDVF

For `O=C(O)CNC(=O)c1nc(Cl)c2ccccc2c1O` [[(1-chloro-4-hydroxyisoquinoline-3-carbonyl)-amino]-acetic acid], the “extent of cross-linking of PHD2 by DR025 in competition experiment” value was “substantially reduced”.
